Source: US11219658B2, “Composition for preventing or treating diseases caused by caffeine abuse including Evodia officinalis extract or evodiamine as active ingredient” (priority 2016, dated 2022)
Marks after values point to notes of the source that are not given here.

How the values were obtained:
[1] = tested on: mouse model having motor activity increased by central nervous system stimulation due to caffeine abuse; experiment: Caffeine-induced central nervous system stimulation, motor activity in motor ability measurement box; type: in vivo, ICR male mice; conditions: for excitatory motor activity time (center time), percentage of maintenance in the center of the box: solvent control 3%; for excitatory motor activity count (center count), percentage of movement in the center of the box: solvent control 16%; for total movement of excitatory motor activity: solvent control 7,107 cm
Description: (§1) 4-week-old ICR male mice (20 to 22 g) were provided from Koatech (Pyeongtaek, Korea), acclimated by breeding for 1 week or more in an animal breeding room in the School of Pharmacy at Sungkyunkwan University, and freely fed water and feed. The temperature (23±2° C.), humidity (55±10%) and a dark/light cycle (12 hrs) were automatically controlled.
To measure an inhibitory effect of evodiamine on caffeine-induced central nervous system stimulation, the mice prepared in Example 2 were divided into four groups of 12 mice, and treated with evodiamine and caffeine in a different manner. The first group was a group treated with distilled water containing 10% DMSO (control), the second group was a group treated with 10% DMSO-containing distilled water and 10 mg/kg of caffeine, the third group was a group treated with 10 mg/kg of evodiamine and 10 mg/kg of caffeine, and the fourth group was a group treated with 20 mg/kg of evodiamine and 10 mg/kg of caffeine.
Evodiamine was dissolved in 10% DMSO-containing distilled water, and orally administered to mice at doses of 0, 10 and 20 mg/kg, and 30 minutes later, intraperitoneally injected with caffeine 10 mg/kg of caffeine. Then, after 30 minutes, the mice were put into a motor ability measurement box (diameter: 30×30×30 (cm)), and measured for a total of 60 minutes using a video measurement and analysis system (Neurovision, Busan, Korea), followed by conversion of the improvement or inhibition in an increased excitatory motor activity count (center count), excitatory motor activity time (center time) and total movement of excitatory motor activity (total movement) to percentage (%).

[2] = tested on: mouse model having somnipathy caused by caffeine abuse; experiment: Caffeine-induced somnipathy, Entobar (pentobarbital)-induced sleep onset and sleep duration; type: in vivo, ICR male mice; conditions: for Change in sleep onset (% of Control) / Change in total sleep duration (% of Control): vehicle control = 100
Description: as §1
Specifically, the first group was a group treated with 10% DMSO-containing distilled water and 40 mg/kg of Entobar® as a control, the second group was a group treated with 10% DMSO-containing distilled water, 50 mg/kg of caffeine and 40 mg/kg of Entobar®, the third group was a group treated with 200 mg/kg of the Evodia officinalis extract, 50 mg/kg of caffeine and 40 mg/kg of Entobar®, and the fourth group was a group treated with 400 mg/kg of the Evodia officinalis extract, 50 mg/kg of caffeine and 40 mg/kg of Entobar®.
Regarding the administration method, the Evodia officinalis extract was dissolved in 10% DMSO-containing distilled water, orally administered to the mice at doses of 0, 200 and 400 mg/kg once a day for three days, and 30 minutes after the final administration. 50 mg/kg of caffeine was intraperitoneally injected into the mice. Thirty minutes after the caffeine injection, 40 mg/kg of Entobar® was intraperitoneally injected to induce sleep. Immediately after the Entobar® injection, the mice were put into each cage, and then sleep onset and sleep duration were measured.
To compare caffeine-induced somnipathy-improving effects of the Evodia officinalis extract and evodiamine, the Evodia officinalis hot water extract prepared in Example 3, ethanol extract thereof and evodiamine were orally administered to the mice prepared in Example 2 once a day for 3 days. 30 minutes after the final administration, 50 mg/kg of caffeine was intraperitoneally injected into the mice. After thirty minutes. 40 mg/kg of Entobar® was intraperitoneally injected to induce sleep, followed by measuring sleep onset and total sleep duration.

[3] = evodiamine 5 mg/kg p.o. once a day for 3 days + caffeine 50 mg/kg i.p. + Entobar 40 mg/kg i.p.
[4] = evodiamine 10 mg/kg p.o. once a day for 3 days + caffeine 50 mg/kg i.p. + Entobar 40 mg/kg i.p.
[5] = caffeine 50 mg/kg i.p. alone + Entobar 40 mg/kg i.p.

Compound	excitatory motor activity time (center time), percentage of maintenance in the center of the box ([1]; evodiamine 10 mg/kg p.o. + caffeine 10 mg/kg i.p., caffeine control 9%) [%]	excitatory motor activity count (center count), percentage of movement in the center of the box ([1]; evodiamine 10 mg/kg p.o. + caffeine 10 mg/kg i.p., caffeine control 23%) [%]	total movement of excitatory motor activity ([1]; evodiamine 10 mg/kg p.o. + caffeine 10 mg/kg i.p., caffeine control 15,078 cm)	excitatory motor activity time (center time), percentage of maintenance in the center of the box ([1]; evodiamine 20 mg/kg p.o. + caffeine 10 mg/kg i.p., caffeine control 9%) [%]	excitatory motor activity count (center count), percentage of movement in the center of the box ([1]; evodiamine 20 mg/kg p.o. + caffeine 10 mg/kg i.p., caffeine control 23%) [%]	total movement of excitatory motor activity ([1]; evodiamine 20 mg/kg p.o. + caffeine 10 mg/kg i.p., caffeine control 15,078 cm)	Change in sleep onset (% of Control) [2, 3]	Change in total sleep duration (% of Control) [2, 3]	Change in sleep onset (% of Control) [2, 4]	Change in total sleep duration (% of Control) [2, 4]	excitatory motor activity count (center count), percentage of movement in the center of the box ([1]; caffeine 10 mg/kg i.p. alone (10% DMSO vehicle p.o.), 60 min measurement) [%]	excitatory motor activity time (center time), percentage of maintenance in the center of the box ([1]; caffeine 10 mg/kg i.p. alone) [%]	total movement of excitatory motor activity ([1]; caffeine 10 mg/kg i.p. alone)	sleep onset ([2]; caffeine 50 mg/kg i.p. + Entobar 40 mg/kg i.p., control without caffeine 219 seconds) [s]	sleep duration ([2]; caffeine 50 mg/kg i.p. + Entobar 40 mg/kg i.p., control without caffeine 2,940 seconds)	Change in sleep onset (% of Control) [2, 5]	Change in total sleep duration (% of Control) [2, 5]
CN1c2ccccc2C(=O)N2CCc3c([nH]c4ccccc34)C21 (centres unmarked) [evodiamine]	7	20	12,734 cm	5	19	10,910 cm	138.7 % of Control	100.5 # % of Control	108.2 # % of Control	94.0 % of Control	–	–	–	–	–	–	–
Cn1c(=O)c2c(ncn2C)n(C)c1=O [caffeine, 1,3,7-trimethylxanthine]	–	–	–	–	–	–	–	–	–	–	23	9	15,078 cm	371	1,812 seconds	166.8 *** % of Control	57.4 ** % of Control
